{"source": "patent US12350270B2", "about": "“Antimalarial agents” (Merck Sharp & Dohme LLC, priority 2019, dated 2025)", "key": {"[1]": {"test_system": "PMIX (plasmepsin IX)", "assay": "Inhibition of PMIX function in parasite extracts: cleavage of PMIX substrates RAP1 and ASP, and PMIX autoprocessing", "assay_type": "cell-based, P. falciparum", "method": "To confirm that Example 1 was a dual inhibitor of PMX and PMIX function, the ability of this compound to inhibit cleavage of the known PMIX substrate Rhoptry Associated Protein 1 (RAP1) in parasite extracts was tested (Pino et al., 2017). RAP1 is a merozoite rhoptry protein that is localized to the parasitophorous vacuole after invasion and processed by both PMIX and SUB1 (Pino et al., 2017). […] RAP1 was not released into the parasite supernatant because it was deposited in the parasitophorous vacuole during the invasion process (Baldi, D., Andrews, K., Waller, R., Roos, D., Howard, R., Crabb, B. and Cowman, A. (2000)). RAP1 controls rhoptry targeting of RAP2 in the malaria parasite Plasmodium falciparum. Embo Journal 19, 2435-2443.\nThe development of Example 1 as a PMIX/PMX dual inhibitor of the P. falciparum parasite has allowed for the analysis of the function of these aspartic acid proteases. To do this, PMIX was processed to a 55 kDa (p55) protein and this was not inhibited by E64."}, "[2]": {"target": "T1, PMX (plasmepsin X) (Plasmodium falciparum, UniProt Q8IAS0)", "T1 construct": "endogenous in cells", "T1 sequence (Q8IAS0 222-573)": "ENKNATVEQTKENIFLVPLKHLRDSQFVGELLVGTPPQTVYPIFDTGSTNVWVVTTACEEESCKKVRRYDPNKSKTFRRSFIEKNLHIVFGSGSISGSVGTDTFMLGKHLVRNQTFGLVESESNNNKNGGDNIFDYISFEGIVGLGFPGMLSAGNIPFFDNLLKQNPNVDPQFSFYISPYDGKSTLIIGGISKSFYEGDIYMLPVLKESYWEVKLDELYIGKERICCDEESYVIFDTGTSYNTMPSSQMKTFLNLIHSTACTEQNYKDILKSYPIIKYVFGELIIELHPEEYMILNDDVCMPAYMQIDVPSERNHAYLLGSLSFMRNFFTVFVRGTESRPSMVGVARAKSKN", "conditions": "negative control, literature (Salmon et al. 2001); cited from earlier work"}, "[3]": {"test_system": "parasites (ring stage, in human red blood cell culture)", "assay": "Parasite LDH growth assay (antiparasite potency, Parasite Assay)", "assay_type": "cell-based, Plasmodium falciparum", "conditions": "0.7% rings, 2% haematocrit, 72 hours at 37° C., LDH readout of parasite growth", "method_in_brief": "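Growth was read by an LDH assay after a freeze–thaw cycle (−80 °C overnight, 4 h thaw at RT). Before that, parasites grew with compound for 72 h at 37 °C under gassed, humidified conditions. The input was a ring-stage culture adjusted to 0.7% parasitemia and 2% haematocrit in serum (5%)/albumax (0.5%)-supplemented RPMI-Hepes.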"}, "[4]": {"conditions": "Plasmodium falciparum, Erythrocyte, 72 h"}}, "note": "pEC50: −log10 of the molar value.", "data": [{"compound": "CC(C)C[C@H](NC(=O)[C@H]1O[C@@H]1C(=O)O)C(=O)NCCCCN=C(N)N", "note": "[Example E64]", "values": [{"measurement": "ASP cleavage (p87 to p47) by PMIX", "setting": "[1]; treated parasites", "result": "processed into a 47 kDa polypeptide (p47)"}, {"measurement": "PMIX processing to 55 kDa (p55) protein (autocatalytic cleavage)", "setting": "[1]; treated parasites", "result": "not inhibited"}, {"measurement": "RAP1 processing (p87 to p82 and p69) by PMIX and SUB1", "setting": "[1]; treated parasites / merozoites", "result": "processed normally by PMIX and SUB1"}, {"measurement": "SERAS processing", "setting": "[2]", "result": "does not affect SERAS processing"}]}, {"compound": "CC[C@]1(C)CC(=O)N([C@@H]2CCc3ccc(C(=O)N[C@@H]4c5ccccc5OC[C@@]4(C)O)cc32)C(=N)N1", "note": "[Example 100, (3R)-3-[(4R)-4-ethyl-2-imino-4-methyl-6-oxo-hexahydropyrimidin-1-yl]-N-[(3S,4R)-3-hydroxy-3-methyl-chroman-4-yl]indane-5-carboxamide]", "values": [{"measurement": "pEC50", "setting": "[3]; [4]", "result": 8.28}]}, {"compound": "CCC1(CC)CC(=O)N([C@@H]2CCOc3ccc(C(=O)NC4c5ccccc5OC(C)(C)C4(C)O)cc32)C(=N)N1", "note": "(single isomer, unassigned) [Example 242B]", "values": [{"measurement": "pEC50", "setting": "[3]", "result": 7.98}]}, {"compound": "CC1(C)CC(=O)N(C2CC(C)(C)c3ccc(C(=O)N[C@@H]4c5ccccc5C[C@@]4(C)O)cc32)C(=N)N1", "note": "(stereo partly drawn) [Example 93, N-[(1R,2R)-2-hydroxy-2-methyl-indan-1-yl]-3-(2-imino-4,4-dimethyl-6-oxo-hexahydropyrimidin-1-yl)-1,1-dimethyl-indane-5-carboxamide]", "values": [{"measurement": "pEC50", "setting": "[3]; [4]", "result": 6.72}]}, {"compound": "(4R)-4-(4,4-diethyl-2-imino-6- oxo-hexahydropyrimidin-1- yl)-N-[2-(hydroxymethyl)- methyl-3H-benzofuran-3- yl]chromane-6-carboxamide [Example 176B]", "values": [{"measurement": "pEC50", "setting": "[3]", "result": 8.11}]}, {"compound": "CCC1(CC)CC(=O)N([C@@H]2CCOc3ccc(C(=O)N[C@@H]4CC(C)(C)Oc5ccccc54)nc32)C(=N)N1", "note": "[Example 31A, (R)-4-(4,4-diethyl-2-imino-6-oxotetrahydropyrimidin-1(2H)-yl)-N-((R)-2,2-dimethylchroman-4-yl)-3,4-dihydro-2H-pyrano[3,2-b]pyridine-6-carboxamide]", "values": [{"measurement": "pEC50", "setting": "[3]; [4]", "result": 7.66}]}, {"compound": "CCC1(CC)CC(=O)N([C@@H]2C[C@H](OC)c3ccc(C(=O)N[C@@H]4c5ccccc5C[C@@]4(C)O)cc32)C(=N)N1", "note": "[Example 158, (1S,3R)-3-(4,4-diethyl-2-imino-6-oxo-hexahydropyrimidin-1-yl)-N-[(1R,2R)-2-hydroxy-2-methyl-indan-1-yl]-1-methoxy-indane-5-carboxamide]", "values": [{"measurement": "pEC50", "setting": "[3]; [4]", "result": 9.05}]}, {"compound": "CCC1(CC)CC(=O)N([C@H]2c3cc(C(=O)N[C@@H]4c5ccccc5OC(C)(C)[C@H]4O)ccc3OC[C@@H]2C)C(=N)N1", "note": "[Example 240, (3R,4R)-4-(4,4-diethyl-2-imino-6-oxo-hexahydropyrimidin-1-yl)-N-[(3S,4R)-3-hydroxy-2,2-dimethyl-chroman-4-yl]-3-methyl-chromane-6-carboxamide]", "values": [{"measurement": "pEC50", "setting": "[3]; [4]", "result": 9.22}]}, {"compound": "CCC1(CC)CC(=O)N([C@@H]2CCOc3ccc(C(=O)NC4CCCOc5ccccc54)cc32)C(=N)N1", "note": "(stereo partly drawn) [Example 119, (4R)-4-(4,4-diethyl-2-imino-6-oxo-hexahydropyrimidin-1-yl)-N-(2,3,4,5-tetrahydro-1-benzoxepin-5-yl)chromane-6-carboxamide]", "values": [{"measurement": "pEC50", "setting": "[3]; [4]", "result": 8.55}]}, {"compound": "CCC1(CC)CC(=O)N([C@@H]2CC(C)(C)Oc3ccc(C(=O)N[C@@H]4c5cc(F)ccc5OC(C)(C)[C@H]4O)cc32)C(=N)N1", "note": "[Example 53A, (R)-4-(4,4-diethyl-2-imino-6-oxotetrahydropyrimidin-1(2H)-yl)-N-((3S,4R)-6-fluoro-3-hydroxy-2,2-dimethylchroman-4-yl)-2,2-dimethylchromane-6-carboxamide]", "values": [{"measurement": "pEC50", "setting": "[3]", "result": 9.52}]}, {"compound": "CCC1(CC)CC(=O)N(C2c3cc(C(=O)N[C@@H]4c5ccccc5C[C@H]4O)ccc3OCC2(C)COC)C(=N)N1", "note": "(stereo partly drawn) [Example 244, 4-(4,4-diethyl-2-imino-6-oxo-hexahydropyrimidin-1-yl)-N-[(1R,2R)-2-hydroxyindan-1-yl]-3-(methoxymethyl)-3-methyl-chromane-6-carboxamide]", "values": [{"measurement": "pEC50", "setting": "[3]; [4]", "result": 8.11}]}, {"compound": "CC1(C)CC(=O)N([C@H]2CCS(=O)(=O)c3ccc(C(=O)N[C@H]4CC(C)(C)Oc5ccccc54)cc32)C(=N)N1", "note": "[Example 221, (4S)-N-[(4S)-2,2-dimethylchroman-4-yl]-4-(2-imino-4,4-dimethyl-6-oxo-hexahydropyrimidin-1-yl)-1,1-dioxo-3,4-dihydro-2H-thiochromene-6-carboxamide]", "values": [{"measurement": "pEC50", "setting": "[3]; [4]", "result": 6.72}]}]}
